In patent US7851474B2, “Dipiperazinyl ketones and related analogues” (Neurogen Corporation, priority 2005, dated 2010):
pKi: −log10 of the molar value.

What follows are compounds tested against T1, chimeric human H3 receptor (Homo sapiens, UniProt Q9Y5N1, E19D) (assay: Chimeric human H3 receptor GTP binding assay (agonist-stimulated GTP-gamma35S binding, Example 7)). Settings: Table II; assay of Example 7; "*" in Ki; read-out: Ki.
T1 construct: made in house; host or cells: Sf9 insect cells (baculovirus infection); P2 membrane preparation
Assay type: biochemical
How it was run: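 IC50 values come from non-linear regression of dose-response curves of filter-bound GTP-gamma^35S, counted by scintillation. Membranes were from infected Sf9 cells carrying receptor plus G-protein subunits, 35 μg/tube, with 10 μM GDP present.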

T1 sequence (Q9Y5N1 with tags, fused parts or gaps E19D): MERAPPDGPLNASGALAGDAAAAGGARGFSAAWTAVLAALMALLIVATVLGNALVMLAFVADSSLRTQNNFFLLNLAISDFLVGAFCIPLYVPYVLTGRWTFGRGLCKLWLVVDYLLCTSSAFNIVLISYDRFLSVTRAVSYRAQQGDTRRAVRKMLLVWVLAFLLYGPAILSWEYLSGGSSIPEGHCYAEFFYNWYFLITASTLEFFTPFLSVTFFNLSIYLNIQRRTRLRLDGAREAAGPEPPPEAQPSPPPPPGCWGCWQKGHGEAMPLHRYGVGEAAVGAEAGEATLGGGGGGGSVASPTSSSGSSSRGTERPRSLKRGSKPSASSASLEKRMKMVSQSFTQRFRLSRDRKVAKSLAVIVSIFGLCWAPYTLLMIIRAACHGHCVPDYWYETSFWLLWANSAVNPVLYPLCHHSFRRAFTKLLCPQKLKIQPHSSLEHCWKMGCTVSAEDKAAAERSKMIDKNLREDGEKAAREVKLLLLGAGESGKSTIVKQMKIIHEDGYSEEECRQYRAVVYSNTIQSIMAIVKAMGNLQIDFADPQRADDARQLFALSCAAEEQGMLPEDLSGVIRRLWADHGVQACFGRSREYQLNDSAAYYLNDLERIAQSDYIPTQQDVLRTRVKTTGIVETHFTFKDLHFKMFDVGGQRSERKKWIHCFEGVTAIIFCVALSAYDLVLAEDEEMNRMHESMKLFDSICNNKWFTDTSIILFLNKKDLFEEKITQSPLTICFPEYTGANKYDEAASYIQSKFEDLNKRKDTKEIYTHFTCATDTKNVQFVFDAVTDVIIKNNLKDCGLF

pKi, > 6.00:
O=C(CN1CCN(c2cnc(-c3ccc4c(c3)OCCO4)cn2)CC1)N1CCN(C2CCC2)CC1 [Compound 947, 2-{4-[2-(4-cyclobutylpiperazin-1-yl)-2-oxoethyl]piperazin-1-yl}-5-(2,3-dihydro-1,4-benzodioxin-6-yl)pyrazine]
COc1ccc(-c2cnc(N3CCN(CC(=O)N4CCN(C5CCC5)CC4)CC3)cn2)cc1C [Compound 948, 2-{4-[2-(4-cyclobutylpiperazin-1-yl)-2-oxoethyl]piperazin-1-yl}-5-(4-methoxy-3-methylphenyl)pyrazine]
CCCOc1ccc(-c2cnc(N3CCN(CC(=O)N4CCN(C5CCC5)CC4)CC3)cn2)cc1 [Compound 949, 2-{4-[2-(4-cyclobutylpiperazin-1-yl)-2-oxoethyl]piperazin-1-yl}-5-(4-propoxyphenyl)pyrazine]
COc1ccc(-c2cnc(N3CCN(CC(=O)N4CCN(C5CCC5)CC4)CC3)cn2)c(C)c1 [Compound 950, 2-{4-[2-(4-cyclobutylpiperazin-1-yl)-2-oxoethyl]piperazin-1-yl}-5-(4-methoxy-2-methylphenyl)pyrazine]
COc1ccccc1-c1cnc(N2CCN(CC(=O)N3CCN(C4CCC4)CC3)CC2)cn1 [Compound 951, 2-{4-[2-(4-cyclobutylpiperazin-1-yl)-2-oxoethyl]piperazin-1-yl}-5-(2-methoxyphenyl)pyrazine]
COc1ccc(C(C)C)cc1-c1cnc(N2CCN(CC(=O)N3CCN(C4CCC4)CC3)CC2)cn1 [Compound 952, 2-{4-[2-(4-cyclobutylpiperazin-1-yl)-2-oxoethyl]piperazin-1-yl}-5-(5-isopropyl-2-methoxyphenyl)pyrazine]
COc1ccc(OC)c(-c2cnc(N3CCN(CC(=O)N4CCN(C5CCC5)CC4)CC3)cn2)c1 [Compound 953, 2-{4-[2-(4-cyclobutylpiperazin-1-yl)-2-oxoethyl]piperazin-1-yl}-5-(2,5-dimethoxyphenyl) pyrazine]
COc1ccc(-c2cnc(N3CCN(CC(=O)N4CCN(C5CCC5)CC4)CC3)cn2)c(OC)c1 [Compound 954, 2-{4-[2-(4-cyclobutylpiperazin-1-yl)-2-oxoethyl]piperazin-1-yl}-5-(2,4-dimethoxyphenyl) pyrazine]
CCOc1ccccc1-c1cnc(N2CCN(CC(=O)N3CCN(C4CCC4)CC3)CC2)cn1 [Compound 955, 2-{4-[2-(4-cyclobutylpiperazin-1-yl)-2-oxoethyl]piperazin-1-yl}-5-(2-ethoxyphenyl)pyrazine]
O=C(CN1CCN(c2cnc(-c3cccc4c3oc3ccccc34)cn2)CC1)N1CCN(C2CCC2)CC1 [Compound 956, 2-{4-[2-(4-cyclobutylpiperazin-1-yl)-2-oxoethyl]piperazin-1-yl}-5-dibenzo[b,d]furan-4-ylpyrazine]
COc1ccc(F)cc1-c1cnc(N2CCN(CC(=O)N3CCN(C4CCC4)CC3)CC2)cn1 [Compound 957, 2-{4-[2-(4-cyclobutylpiperazin-1-yl)-2-oxoethyl]piperazin-1-yl}-5-(5-fluoro-2-methoxyphenyl)pyrazine]
COc1ccc(C)cc1-c1cnc(N2CCN(CC(=O)N3CCN(C4CCC4)CC3)CC2)cn1 [Compound 958, 2-{4-[2-(4-cyclobutylpiperazin-1-yl)-2-oxoethyl]piperazin-1-yl}-5-(2-methoxy-5-methylphenyl)pyrazine]
O=C(CN1CCN(c2cnc(-c3ccccc3Oc3ccccc3)cn2)CC1)N1CCN(C2CCC2)CC1 [Compound 959, 2-{4-[2-(4-cyclobutylpiperazin-1-yl)-2-oxoethyl]piperazin-1-yl}-5-(2-phenoxyphenyl)pyrazine]
O=C(CN1CCN(c2cnc(-c3cc(F)ccc3F)cn2)CC1)N1CCN(C2CCC2)CC1 [Compound 960, 2-{4-[2-(4-cyclobutylpiperazin-1-yl)-2-oxoethyl]piperazin-1-yl}-5-(2,5-difluorophenyl)pyrazine]
O=C(CN1CCN(c2cnc(-c3ccc(F)cc3F)cn2)CC1)N1CCN(C2CCC2)CC1 [Compound 961, 2-{4-[2-(4-cyclobutylpiperazin-1-yl)-2-oxoethyl]piperazin-1-yl}-5-(2,4-difluorophenyl)pyrazine]
O=C(CN1CCN(c2cnc(-c3ccc(F)c(F)c3)cn2)CC1)N1CCN(C2CCC2)CC1 [Compound 962, 2-{4-[2-(4-cyclobutylpiperazin-1-yl)-2-oxoethyl]piperazin-1-yl}-5-(3,4-difluorophenyl)pyrazine]
O=C(CN1CCN(c2cnc(-c3cc(Cl)cc(Cl)c3)cn2)CC1)N1CCN(C2CCC2)CC1 [Compound 963, 2-{4-[2-(4-cyclobutylpiperazin-1-yl)-2-oxoethyl]piperazin-1-yl}-5-(3,5-dichlorophenyl)pyrazine]
O=C(CN1CCN(c2cnc(-c3ccc(Cl)c(Cl)c3)cn2)CC1)N1CCN(C2CCC2)CC1 [Compound 964, 2-{4-[2-(4-cyclobutylpiperazin-1-yl)-2-oxoethyl]piperazin-1-yl}-5-(3,4-dichlorophenyl)pyrazine]
O=C(CN1CCN(c2cnc(-c3cc(F)cc(F)c3)cn2)CC1)N1CCN(C2CCC2)CC1 [Compound 965, 2-{4-[2-(4-cyclobutylpiperazin-1-yl)-2-oxoethyl]piperazin-1-yl}-5-(3,5-difluorophenyl)pyrazine]
O=C(CN1CCN(c2cnc(-c3cccc(F)c3F)cn2)CC1)N1CCN(C2CCC2)CC1 [Compound 966, 2-{4-[2-(4-cyclobutylpiperazin-1-yl)-2-oxoethyl]piperazin-1-yl}-5-(2,3-difluorophenyl)pyrazine]
O=C(CN1CCN(c2cnc(-c3cccc(Cl)c3Cl)cn2)CC1)N1CCN(C2CCC2)CC1 [Compound 967, 2-{4-[2-(4-cyclobutylpiperazin-1-yl)-2-oxoethyl]piperazin-1-yl}-5-(2,3-dichlorophenyl)pyrazine]
O=C(CN1CCN(c2cnc(-c3ccc(Cl)cc3Cl)cn2)CC1)N1CCN(C2CCC2)CC1 [Compound 968, 2-{4-[2-(4-cyclobutylpiperazin-1-yl)-2-oxoethyl]piperazin-1-yl}-5-(2,4-dichlorophenyl)pyrazine]
O=C(CN1CCN(c2cnc(-c3ccccc3C(F)(F)F)cn2)CC1)N1CCN(C2CCC2)CC1 [Compound 969, 2-{4-[2-(4-cyclobutylpiperazin-1-yl)-2-oxoethyl]piperazin-1-yl}-5-[2-(trifluoromethyl)phenyl] pyrazine]
COc1cccc(OC)c1-c1cnc(N2CCN(CC(=O)N3CCN(C4CCC4)CC3)CC2)cn1 [Compound 970, 2-{4-[2-(4-cyclobutylpiperazin-1-yl)-2-oxoethyl]piperazin-1-yl}-5-(2,6-dimethoxyphenyl) pyrazine]
CC(C)c1ccccc1-c1cnc(N2CCN(CC(=O)N3CCN(C4CCC4)CC3)CC2)cn1 [Compound 971, 2-{4-[2-(4-cyclobutylpiperazin-1-yl)-2-oxoethyl]piperazin-1-yl}-5-(2-isopropylphenyl)pyrazine]
Cc1cccc(C)c1-c1cnc(N2CCN(CC(=O)N3CCN(C4CCC4)CC3)CC2)cn1 [Compound 972, 2-{4-[2-(4-cyclobutylpiperazin-1-yl)-2-oxoethyl]piperazin-1-yl}-5-(2,6-dimethylphenyl)pyrazine]
O=C(CN1CCN(c2cnc(-c3cc(Cl)ccc3Cl)cn2)CC1)N1CCN(C2CCC2)CC1 [Compound 973, 2-{4-[2-(4-cyclobutylpiperazin-1-yl)-2-oxoethyl]piperazin-1-yl}-5-(2,5-dichlorophenyl)pyrazine]
Cc1cc(C)c(-c2cnc(N3CCN(CC(=O)N4CCN(C5CCC5)CC4)CC3)cn2)c(C)c1 [Compound 974, 2-{4-[2-(4-cyclobutylpiperazin-1-yl)-2-oxoethyl]piperazin-1-yl}-5-mesitylpyrazine]
O=C(CN1CCN(c2cnc(-c3ccc(C(F)(F)F)cc3)cn2)CC1)N1CCN(C2CCC2)CC1 [Compound 975, 2-{4-[2-(4-cyclobutylpiperazin-1-yl)-2-oxoethyl]piperazin-1-yl}-5-[4-(trifluoromethyl)phenyl] pyrazine]
O=C(CN1CCN(c2cnc(-c3cccc(C(F)(F)F)c3)cn2)CC1)N1CCN(C2CCC2)CC1 [Compound 976, 2-{4-[2-(4-cyclobutylpiperazin-1-yl)-2-oxoethyl]piperazin-1-yl}-5-[3-(trifluoromethyl)phenyl] pyrazine]
O=C(CN1CCN(c2ncc(F)cn2)CC1)N1CCN(C2CCCC2)CC1 [Compound 977, 2-{4-[2-(4-cyclopentylpiperazin-1-yl)-2-oxoethyl]piperazin-1-yl}-5-fluoropyrimidine]
O=C(CN1CCN(c2nc3ccccc3n2Cc2ccc(F)cc2)CC1)N1CCN(C2CCCC2)CC1 [Compound 978, 2-{4-[2-(4-cyclopentylpiperazin-1-yl)-2-oxoethyl]piperazin-1-yl}-1-(4-fluorobenzyl)-1H-benzimidazole]
CCC(C)N1CCN(C(=O)CN2CCN(c3ncc(F)cn3)CC2)CC1 (centres unmarked) [Compound 979, 2-{4-[2-(4-sec-butylpiperazin-1-yl)-2-oxoethyl]piperazin-1-yl}-5-fluoropyrimidine]
O=C(CN1C=CC2(CC1)c1ccccc1C(=O)N2Cc1ccccc1)N1CCN(C2CCC2)CC1 (centres unmarked) [Compound 980, 2-benzyl-1′-[2-(4-cyclobutylpiperazin-1-yl)-2-oxoethyl]-2′,′3-dihydro-1′H-spiro[isoindole-1,4′-pyridin]-3(2H)-one]
O=C(CN1CCC2(CC1)c1ccccc1C(=O)N2Cc1ccccc1)N1CCN(C2CCC2)CC1 [Compound 981, 2-benzyl-1′-[2-(4-cyclobutylpiperazin-1-yl)-2-oxoethyl]spiro[isoindole-1,4′-piperidin]-3(2H)-one]
